{"source": "patent EP4806435A1", "about": "“DIHYDROCHROMENE-DERIVATIVE-CONTAINING THERAPEUTIC AGENT FOR CANCER” (Sumitomo Pharma Co., Ltd., priority 2023, dated 2025)", "key": {"[1]": {"test_system": "U-87 cells", "assay": "Cytotoxicity assay of metabolites under sphere culture conditions (ATP)", "type": "cell-based", "conditions": "Homo sapiens, U-87 MG, 168 h, 7 days in sphere medium, read-out: IC50 (cytotoxicity, cell viability by ATP)", "description": "U-87 cells were cultured for 7 days in sphere medium in the presence of metabolites M2, M4, and M5, respectively. After culture, cellular ATP levels were quantified as an indicator of cell viability, and cell viability was calculated in the same manner as in Example 12 to compare cytotoxicity."}, "[2]": {"test_system": "U-87 cells (IDH1 wild-type)", "assay": "Cytotoxicity, sphere culture with LDL, combination with ezetimibe (ATP)", "type": "cell-based, human", "conditions": "ezetimibe at 3.3, 10, or 30 µM; 7 days; LDL 5 µg/mL", "description": "U-87 cells were cultured for 7 days in sphere medium supplemented with LDL at a concentration of 5 µg/mL, with either ezetimibe (a cholesterol absorption inhibitor) added at 3.3, 10, or 30 µM, Compound 1 added at 1 µM, or a combination of both agents. Cell viability was calculated in the same manner as in Example 12, and the cytotoxic effects of each treatment were compared between single-agent and combination conditions."}, "[3]": {"test_system": "U-87 GBM xenografts", "assay": "Tumor shrinkage in mice bearing U-87 GBM xenografts", "type": "in vivo"}, "[4]": {"test_system": "non-human primate", "assay": "4-week non-human primate toxicity study (GLP)", "type": "in vivo", "description": "(§1) The initial starting dose of 20 mg/day (expressed as the present compound) was determined in accordance with the ICH S9 guideline of International Council for Harmonisation of Technical Requirements for Pharmaceuticals for Human Use (ICH). Based on a 4-week mouse toxicity study conducted in compliance with Good Laboratory Practice (GLP), the dose causing severe toxicity in 10% of the test animals (STD10) was determined to be 50 mg/kg. Applying a safety factor of 10 and interspecies scaling, the starting dose for this first-in-human (FIH) study was calculated to be 0.4 mg/kg, corresponding to a fixed dose of 24 mg for a 60-kg human. In a 4-week non-human primate toxicity study conducted in compliance with Good Laboratory Practice (GLP), the highest non-severely toxic dose (HNSTD) was determined to be 7.5 mg/kg. Applying a safety factor of 6 and interspecies scaling, the starting dose in humans was estimated to be 0.4 mg/kg, corresponding to a fixed dose of 24 mg. The final recommended starting dose for the first-in-human (FIH) study was rounded to 20 mg/day."}, "[5]": {"test_system": "mouse", "assay": "4-week mouse toxicity study (GLP)", "type": "in vivo", "description": "as §1"}}, "data": [{"compound": "CC1(C)Oc2cc(Cl)ccc2[C@@H]2OCC3(CCN(CCNC(=O)CNC=O)CC3)C[C@H]21", "note": "[Compound M2, N-2-[(4'aR,10'bR)-8'-chloro-5',5'-dimethyl-4'a,10'b-dihydro-2'H,4'H,5'H-spiro[piperidine-4,3'-pyrano[3,2-c][1]benzopyran]-1-yl]ethyl-N^2-formylglycinamide]", "values": [{"measurement": "IC50", "setting": "[1]", "result": 3600, "unit": "nM"}]}, {"compound": "CC1(C)Oc2cc(Cl)ccc2[C@@H]2OCC3(CCNCC3)C[C@H]21", "note": "[Compound M4]", "values": [{"measurement": "IC50", "setting": "[1]", "result": 1600, "unit": "nM"}]}, {"compound": "CC1(C)Oc2cc(Cl)ccc2[C@@H]2OCC3(CCN(CCO)CC3)C[C@H]21", "note": "[Compound M5, 2-[(4'aR,10'bR)-8'-chloro-5',5'-dimethyl-4'a,10'b-dihydro-2'H,4'H,5'H-spiro[piperidine-4,3'-pyrano[3,2-c][1]benzopyran]-1-yl]ethan-1-ol]", "values": [{"measurement": "IC50", "setting": "[1]", "result": 2100, "unit": "nM"}]}, {"compound": "O=C1[C@H](CC[C@H](O)c2ccc(F)cc2)[C@@H](c2ccc(O)cc2)N1c1ccc(F)cc1", "note": "[ezetimibe, reference compound]", "values": [{"measurement": "cytotoxicity, single agent", "setting": "[2]", "result": "low cytotoxicity"}]}, {"compound": "CC1(C)Oc2cc(Cl)ccc2[C@@H]2OCC3(CCN(CCn4ccnc4)CC3)C[C@H]21", "note": "[the present compound, (4'aR,10'bR)-8'-chloro-1-[2-(1H-imidazol-1-yl)ethyl]-5',5'-dimethyl-4'a,10'b-dihydro-2'H,4'H,5'H-spiro[piperidine-4,3'-pyrano[3,2-c][1]benzopyran]]", "values": [{"measurement": "minimum pharmacologically active dose in humans (human equivalent dose, HED)", "setting": "[3]; HED of 3 mg/kg in mice bearing U-87 GBM xenografts", "result": 15, "unit": "mg"}, {"measurement": "dose at which a consistent tumor shrinkage effect was observed", "setting": "[3]; mice bearing U-87 GBM xenografts", "result": 3, "unit": "mg/kg"}, {"measurement": "highest non-severely toxic dose (HNSTD)", "setting": "[4]", "result": 7.5, "unit": "mg/kg"}, {"measurement": "dose causing severe toxicity in 10% of the test animals (STD10)", "setting": "[5]", "result": 50, "unit": "mg/kg"}]}]}
